Source: patent publication US20230077362A1 (CORTEVA AGRISCIENCE LLC, priority 2019, published 2023)
Where two headings read alike, the source gives them in different places.

Tests used:
Assay type in all cases: in vivo
[1] = tested on: Beet Armyworm (Spodoptera exigua) ("BAW"), second instar larvae; assay: Bioassay on beet armyworm (BAW), 128-well diet tray assay; settings: Spodoptera exigua
In short: (§1)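 After sealing with a clear self-adhesive lid, the trays are incubated at 25° C. with 14 h light and 10 h dark for 5 to 7 days; mortality in each well is recorded as a percentage and averaged across the eight wells.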

[2] = tested on: Cabbage Looper (Trichoplusia ni) ("CL"), second instar larvae; assay: Bioassay on cabbage looper (CL), 128-well diet tray assay; settings: Trichoplusia ni
In short: as §1

[3] = tested on: Green Peach Aphid ("GPA") (Myzus persicae), wingless adult and nymph stages; assay: Bioassay on green peach aphid (GPA), foliar spray on infested cabbage seedlings; settings: Myzus persicae, foliar, 72 h
In short: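 Cabbage seedlings with 2-3 true leaves, infested one day earlier with 20-50 wingless adult and nymph GPA, sprayed to runoff on both leaf sides; solvent check held 20% acetone/methanol (1:1). Live aphids counted after three days at about 25° C; corrected % control = 100*(X−Y)/X versus solvent check.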

[4] = read-out: BAW (Biological Results, rating)
[5] = read-out: CL (Biological Results, rating)
[6] = read-out: GPA (Biological Results, rating)

| SMILES | pest or weed control at 50 µg/cm2 [1, 4] | pest or weed control at 50 µg/cm2 [2, 5] | pest or weed control at 200 µg/mL [3, 6] | pest or weed control at 50 µg/cm2 ([1]; read-out: BAW rating) | pest or weed control at 50 µg/cm2 ([2]; read-out: CL rating) | pest or weed control at 200 µg/mL ([3]; read-out: GPA rating) |
| --- | --- | --- | --- | --- | --- | --- |
| Cc1ccc(COCC(F)(F)F)c(N2C(=O)CS/C2=N\C(=O)Nc2ccc(-c3ncn(-c4ccc(C(F)(F)F)cc4)n3)cc2F)c1 [Compound J168, (Z)-1-(2-Fluoro-4-(1-(4-(trifluoromethyl)phenyl)-1H-1,2,4-triazol-3-yl)phenyl)-3-(3-(5-methyl-2-((2,2,2-trifluoroethoxy)methyl)phenyl)-4-oxothiazolidin-2-ylidene)urea] | 50 to 100% | 50 to 100% | 0 to 80% | – | – | – |
| COCOc1cc(-c2ncn(-c3ccc(OC(F)(F)F)cc3)n2)ccc1NC(=O)/N=C1\SCC(=O)N1c1cc(N(C)C)ccc1C(C)C [Compound J172, (Z)-1-(3-(5-(Dimethylamino)-2-isopropylphenyl)-4-oxothiazolidin-2-ylidene)-3-(2-(methoxymethoxy)-4-(1-(4-(trifluoromethoxy)phenyl)-1H-1,2,4-triazol-3-yl)phenyl)urea] | 50 to 100% | 50 to 100% | 0 to 80% | – | – | – |
| CN(C)c1ccc(OCC(F)(F)F)c(N2C(=O)CS/C2=N\C(=O)Nc2ccc(-c3ncn(-c4ccc(OC(F)(F)F)cc4)n3)cc2F)c1 [Compound J193, (Z)-1-(3-(5-(Dimethylamino)-2-(2,2,2-trifluoroethoxy)phenyl)-4-oxothiazolidin-2-ylidene)-3-(2-fluoro-4-(1-(4-(trifluoromethoxy)phenyl)-1H-1,2,4-triazol-3-yl)phenyl)urea] | 50 to 100% | 50 to 100% | 0 to 80% | – | – | – |
| CC(C)c1ccccc1N1C(=O)CS/C1=N\C(=O)Nc1ccc(-c2ncn(-c3ccc(OC(F)(F)F)cc3)n2)cc1F [Compound J86, (Z)-1-(2-Fluoro-4-(1-(4-(trifluoromethoxy)phenyl)-1H-1,2,4-triazol-3-yl)phenyl)-3-(3-(2-isopropylphenyl)-4-oxothiazolidin-2-ylidene)urea] | 50 to 100% | 50 to 100% | 0 to 80% | – | – | – |
| COc1ccc(C(C)C)c(N2C(=O)CS/C2=N\C(=O)Nc2ccc(-c3ncn(-c4cccc(OC(F)(F)F)c4)n3)cc2C)c1 [Compound J136, (Z)-1-(3-(2-Isopropyl-5-methoxyphenyl)-4-oxothiazolidin-2-ylidene)-3-(2-methyl-4-(1-(3-(trifluoromethoxy)phenyl)-1H-1,2,4-triazol-3-yl)phenyl)urea] | 50 to 100% | 50 to 100% | 0 to 80% | – | – | – |
| CCc1cc(-c2ncn(-c3ccc(OC(F)(F)F)cc3)n2)ccc1NC(=O)/N=C1\SCC(=O)N1c1cc(C)ccc1COC [Compound J72, (Z)-1-(2-Ethyl-4-(1-(4-(trifluoromethoxy)phenyl)-1H-1,2,4-triazol-3-yl)phenyl)-3-(3-(2-(methoxymethyl)-5-methylphenyl)-4-oxothiazolidin-2-ylidene)urea] | 50 to 100% | 50 to 100% | 0 to 80% | – | – | – |
| CC(C)c1ccc(N(C)C)cc1N1C(=O)CS/C1=N\C(=O)Nc1ccc(-c2ncn(-c3ccc(SC(F)(F)F)cc3)n2)cc1 [Compound J368, (Z)-1-(3-(5-(Dimethylamino)-2-isopropylphenyl)-4-oxothiazolidin-2-ylidene)-3-(4-(1-(4-((trifluoromethyl)thio)phenyl)-1H-1,2,4-triazol-3-yl)phenyl)urea] | – | – | – | 50 to 100% | 50 to 100% | 0 to 80% |
| COCc1ccc(C)cc1N1C(=O)CS/C1=N\C(=O)Nc1ccc(-c2ncn(-c3ccc(OC(F)(F)F)cc3)n2)cc1F [Compound J66, (Z)-1-(2-Fluoro-4-(1-(4-(trifluoromethoxy)phenyl)-1H-1,2,4-triazol-3-yl)phenyl)-3-(3-(2-(methoxymethyl)-5-methylphenyl)-4-oxothiazolidin-2-ylidene)urea] | 50 to 100% | 50 to 100% | 0 to 80% | – | – | – |
| CCOc1ccc(N(C)C)cc1N1C(=O)CS/C1=N\C(=O)Nc1ccc(-c2ncn(-c3ccc(OC(F)(F)F)cc3)n2)cc1F [Compound J192, (Z)-1-(3-(5-(Dimethylamino)-2-ethoxyphenyl)-4-oxothiazolidin-2-ylidene)-3-(2-fluoro-4-(1-(4-(trifluoromethoxy)phenyl)-1H-1,2,4-triazol-3-yl)phenyl)urea] | 50 to 100% | 50 to 100% | 0 to 80% | – | – | – |
| CCOCc1ccc(C)cc1N1C(=O)CS/C1=N\C(=O)Nc1ccc(-c2ncn(-c3ccc(OC(F)(F)C(F)(F)F)cc3)n2)cc1F [Compound J663, (Z)-1-(3-(2-(Ethoxymethyl)-5-methylphenyl)-4-oxothiazolidin-2-ylidene)-3-(2-fluoro-4-(1-(4-(perfluoroethoxy)phenyl)-1H-1,2,4-triazol-3-yl)phenyl)urea] | – | – | – | 50 to 100% | 50 to 100% | 0 to 80% |
| COC(C)c1ccc(C)cc1N1C(=O)CS/C1=N\C(=O)Nc1ccc(-c2ncn(-c3cccc(OC(F)(F)F)c3)n2)cc1F (stereo not drawn) [Compound J120, (Z)-1-(2-Fluoro-4-(1-(3-(trifluoromethoxy)phenyl)-1H-1,2,4-triazol-3-yl)phenyl)-3-(3-(2-(1-methoxyethyl)-5-methylphenyl)-4-oxothiazolidin-2-ylidene)urea] | 50 to 100% | 50 to 100% | 0 to 80% | – | – | – |
| Cc1ccc(C(C)C)c(N2C(=O)CS/C2=N\C(=O)Nc2ccc(-c3ncn(-c4ccc(SC(F)(F)F)cc4)n3)cc2Cl)c1 [Compound J231, (Z)-1-(2-Chloro-4-(1-(4-((trifluoromethyl)thio)phenyl)-1H-1,2,4-triazol-3-yl)phenyl)-3-(3-(2-isopropyl-5-methylphenyl)-4-oxothiazolidin-2-ylidene)urea] | 50 to 100% | 50 to 100% | 0 to 80% | – | – | – |
| Cc1ccc(-n2cnc(-c3ccc(NC(=O)/N=C4\SCC(=O)N4c4cc(C)ccc4OCCC(F)(F)F)c(F)c3)n2)cc1 [Compound J151, (Z)-1-(2-Fluoro-4-(1-(p-tolyl)-1H-1,2,4-triazol-3-yl)phenyl)-3-(3-(5-methyl-2-(3,3,3-trifluoropropoxy)phenyl)-4-oxothiazolidin-2-ylidene)urea] | 50 to 100% | 50 to 100% | 0 to 80% | – | – | – |
| Cc1cc(-c2ncn(-c3ccc(S(=O)(=O)C(F)(F)F)cc3)n2)ccc1NC(=O)/N=C1\SCC(=O)N1c1cc(N(C)C)ccc1C(C)C [Compound J366, (Z)-1-(3-(5-(Dimethylamino)-2-isopropylphenyl)-4-oxothiazolidin-2-ylidene)-3-(2-methyl-4-(1-(4-((trifluoromethyl)sulfonyl)phenyl)-1H-1,2,4-triazol-3-yl)phenyl)urea] | – | – | – | 50 to 100% | 50 to 100% | 0 to 80% |
| COC(=O)c1ccc(C(C)C)c(N2C(=O)CS/C2=N\C(=O)Nc2ccc(-c3ncn(-c4ccc(OC(F)(F)F)cc4)n3)cc2F)c1 [Compound J104, Methyl (Z)-3-(2-(((2-fluoro-4-(1-(4-(trifluoromethoxy)phenyl)-1H-1,2,4-triazol-3-yl)phenyl)carbamoyl)imino)-4-oxothiazolidin-3-yl)-4-isopropylbenzoate] | 50 to 100% | 50 to 100% | 0 to 80% | – | – | – |
